Measurements taken from patent US8722897B2, “Metal complexes of thiourea and derivatives as metal delivering anti-cancer and anti-inflammatory agents” (priority 2010, dated 2014).

How the values were obtained:
[1] = target: T1, Glutathione reductase (GR) (Homo sapiens, UniProt P00390); test: Cellular glutathione reductase activity of treated HeLa cells; assay type: cell-based; conditions: one-hour treatment
T1 construct: endogenous in cells; host or cells: HeLa
T1 sequence (P00390 44-522): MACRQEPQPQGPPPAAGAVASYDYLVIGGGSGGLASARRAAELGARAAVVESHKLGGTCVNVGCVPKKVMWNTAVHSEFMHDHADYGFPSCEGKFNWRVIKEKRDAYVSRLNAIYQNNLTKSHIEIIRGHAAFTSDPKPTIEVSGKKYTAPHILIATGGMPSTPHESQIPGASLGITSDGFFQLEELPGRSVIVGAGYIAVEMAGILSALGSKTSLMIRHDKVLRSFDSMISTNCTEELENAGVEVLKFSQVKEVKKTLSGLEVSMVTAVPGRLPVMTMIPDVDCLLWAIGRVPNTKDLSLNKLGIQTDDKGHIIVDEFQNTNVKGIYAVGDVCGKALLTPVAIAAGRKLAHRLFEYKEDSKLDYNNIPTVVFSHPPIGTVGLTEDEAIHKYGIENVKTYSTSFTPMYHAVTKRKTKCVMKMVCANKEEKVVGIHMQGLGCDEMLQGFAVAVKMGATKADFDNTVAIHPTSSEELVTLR
Experimental: Cells were seeded at 2×10^5/well in 6-well plates and incubated for 24 hours. The metal thiourea compounds (10^−9 to 10^−4 M) were serially diluted and added to the cells (final DMSO concentrations≦1%). After an one-hour incubation, cells were washed thrice with phosphate buffered saline and 100 μL ice-cold lysis buffer (50 mM phosphate buffer, pH 7.4, 1 mM EDTA, 0.1% Triton-X 100) were added to the cell layer. Cell lysis was carried on ice for 5 minutes and the cell lysates were collected and stored at −80° C. or assayed immediately.
Cell lysates (10 μg proteins) were added to a mixture containing 100 mM phosphate, pH 7.4, 1 mM EDTA, 1 mM GSSG and 0.2 mM NADPH. Reaction was initiated by adding DTNB (3 mM final) and the increases in O.D.412 nm were measured for 10 min. GR activities were determined by subtracting the increases in O.D.412 nm in the absence of GSSG.

[2] = Cytotoxicity assay (MTT), NCI-H460; conditions: human, NCI-H460 cells
Experimental: (§1) Cells were seeded in a 96-well flat-bottomed microplate at 20,000 cells/well in 150 μL of growth medium solution. The compounds were dissolved in dimethyl sulfoxide. Serial dilution of each complex was added to each well with final concentration of DMSO≦1%. The microplate was incubated at 37° C., 5% CO2, 95% air in a humidified incubator for 72 h. After incubation, 10 μL MTT reagent (5 mg/mL) was added to each well. The microplate was re-incubated at 37° C. in 5% CO2 for 4 h. Solubilization solution (10% SDS in 0.01 M HCl) (100 μL) was added to each well. The microplate was left in an incubator for 24 h. Absorbances at 550 nm were measured by a microplate reader.

[3] = Cytotoxicity assay (MTT), SUNE1; conditions: human, SUNE1 cells
Experimental: as §1

[4] = Cytotoxicity assay (MTT), HeLa; conditions: human, HeLa cells
Experimental: Cells were seeded in a 96-well flat-bottomed microplate at 20,000 cells/well in 150 μL of growth medium solution. The compounds were dissolved in dimethyl sulfoxide. Serial dilution of each complex was added to each well with final concentration of DMSO≦1%. […] After incubation, 10 μL MTT reagent (5 mg/mL) was added to each well. The microplate was re-incubated at 37° C. in 5% CO2 for 4 h. Solubilization solution (10% SDS in 0.01 M HCl) (100 μL) was added to each well. The microplate was left in an incubator for 24 h. Absorbances at 550 nm were measured by a microplate reader.

Recombinant rat TrxR1 = target: T2, Recombinant rat TrxR1 (Rattus norvegicus, UniProt O89049); test: biochemical; conditions: preformed EI*
T2 construct: purchased ICMO Corp, Sweden (so in the source)
T2 sequence (O89049 1-499): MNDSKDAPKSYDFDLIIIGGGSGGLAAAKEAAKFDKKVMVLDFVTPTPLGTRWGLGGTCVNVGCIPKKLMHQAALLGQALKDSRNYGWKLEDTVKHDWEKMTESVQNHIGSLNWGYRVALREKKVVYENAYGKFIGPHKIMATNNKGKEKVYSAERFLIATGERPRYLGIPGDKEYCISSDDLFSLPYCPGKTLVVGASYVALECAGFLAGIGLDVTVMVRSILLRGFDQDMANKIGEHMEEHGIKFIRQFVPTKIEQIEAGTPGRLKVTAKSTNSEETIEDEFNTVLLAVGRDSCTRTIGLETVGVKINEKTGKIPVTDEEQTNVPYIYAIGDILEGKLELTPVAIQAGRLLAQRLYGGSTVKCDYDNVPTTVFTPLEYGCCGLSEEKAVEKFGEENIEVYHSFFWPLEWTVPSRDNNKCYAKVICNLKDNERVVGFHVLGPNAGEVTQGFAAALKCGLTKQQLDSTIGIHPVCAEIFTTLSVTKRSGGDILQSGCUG
Experimental: 1 nM Recombinant rat TrxR1 (ICMO Corp, Sweden) was reduced with 0.2 mM NADPH and then incubated with 0.3-10 nM of 1 for 30 min in a buffer of 100 mM phosphate buffer, pH 7.4 and 1 mM EDTA. The residual activities were measured using 0.75, 1.5 or 3 mM DTNB (FIG. 7A). The data were fit into Eq. 1 using GraphPad Prism 3.0 software. vs/vo=(Et−Ki−It+((It+Ki′−Et)^2+(4KiEt))^1/2)/(2Et) (1) Eq. 1 describes the rate law of tight-binding inhibition in which case the inhibitor concentration is substantially depleted owing to formation of enzyme-inhibitor complex. In this equation, vo is the observed velocity in the absence of inhibitor, vs is the steady-state velocity in the presence of inhibitor, Et is the total enzyme concentration, and I is the inhibitor concentration. […] Ki=Ki*(1+S/Km) (2) Determination of Ki by Progress Curve Analysis ^35, 36 (FIG. 8)

Structure (SMILES): COc1ccc(N2CCN(c3ccc(OC)cc3)C2=[S+][Au-][S+]=C2N(c3ccc(OC)cc3)CCN2c2ccc(OC)cc2)cc1 [complex 1, [Au(TU)2]Cl]
- effect on cellular GR activity [1]: not affected
- IC50 at 72 h [2]: 3.72 ± 0.3 µM
- IC50 at 72 h [3]: 10.8 ± 0.2 µM
- IC50 at 72 h [4]: 14.6 ± 0.7 µM
- Ki (Recombinant rat TrxR1; apparent inhibitory constant (Ki), 1 nM TrxR1, 30 min preincubation, steady state rate law): 0.67 nM
- Ki (Recombinant rat TrxR1; inhibitory constant Ki*, corrected for substrate competition, Km 0.2 mM): 0.036 nM
